Source: patent US20240246948A1, “BENZAMIDE DERIVATIVE, METHOD FOR PREPARING SAME, AND PHARMACEUTICAL COMPOSITION FOR PREVENTION OR TREATMENT OF CANCER CONTAINING SAME AS ACTIVE INGREDIENT” (HK INNO.N CORPORATION, priority 2021, published 2024)

Tests used:
[1] = biological target: Ba/F3 EGFR L858R/T790M (LT) (Homo sapiens, UniProt P00533, T790M/L858R, cells depend on it); test: Cell growth inhibitory ability in Ba/F3 cells overexpressing EGFR L858R/T790M (MTS, CellTiter 96 AQueous); type: cell-based; conditions: 72 hours, MTS absorbance at 490 nm, read-out: Ba/F3 EGFR double mutant L858R/T790M, IC50
Ba/F3 EGFR L858R/T790M (LT), sequence (P00533 whole entry T790M/L858R): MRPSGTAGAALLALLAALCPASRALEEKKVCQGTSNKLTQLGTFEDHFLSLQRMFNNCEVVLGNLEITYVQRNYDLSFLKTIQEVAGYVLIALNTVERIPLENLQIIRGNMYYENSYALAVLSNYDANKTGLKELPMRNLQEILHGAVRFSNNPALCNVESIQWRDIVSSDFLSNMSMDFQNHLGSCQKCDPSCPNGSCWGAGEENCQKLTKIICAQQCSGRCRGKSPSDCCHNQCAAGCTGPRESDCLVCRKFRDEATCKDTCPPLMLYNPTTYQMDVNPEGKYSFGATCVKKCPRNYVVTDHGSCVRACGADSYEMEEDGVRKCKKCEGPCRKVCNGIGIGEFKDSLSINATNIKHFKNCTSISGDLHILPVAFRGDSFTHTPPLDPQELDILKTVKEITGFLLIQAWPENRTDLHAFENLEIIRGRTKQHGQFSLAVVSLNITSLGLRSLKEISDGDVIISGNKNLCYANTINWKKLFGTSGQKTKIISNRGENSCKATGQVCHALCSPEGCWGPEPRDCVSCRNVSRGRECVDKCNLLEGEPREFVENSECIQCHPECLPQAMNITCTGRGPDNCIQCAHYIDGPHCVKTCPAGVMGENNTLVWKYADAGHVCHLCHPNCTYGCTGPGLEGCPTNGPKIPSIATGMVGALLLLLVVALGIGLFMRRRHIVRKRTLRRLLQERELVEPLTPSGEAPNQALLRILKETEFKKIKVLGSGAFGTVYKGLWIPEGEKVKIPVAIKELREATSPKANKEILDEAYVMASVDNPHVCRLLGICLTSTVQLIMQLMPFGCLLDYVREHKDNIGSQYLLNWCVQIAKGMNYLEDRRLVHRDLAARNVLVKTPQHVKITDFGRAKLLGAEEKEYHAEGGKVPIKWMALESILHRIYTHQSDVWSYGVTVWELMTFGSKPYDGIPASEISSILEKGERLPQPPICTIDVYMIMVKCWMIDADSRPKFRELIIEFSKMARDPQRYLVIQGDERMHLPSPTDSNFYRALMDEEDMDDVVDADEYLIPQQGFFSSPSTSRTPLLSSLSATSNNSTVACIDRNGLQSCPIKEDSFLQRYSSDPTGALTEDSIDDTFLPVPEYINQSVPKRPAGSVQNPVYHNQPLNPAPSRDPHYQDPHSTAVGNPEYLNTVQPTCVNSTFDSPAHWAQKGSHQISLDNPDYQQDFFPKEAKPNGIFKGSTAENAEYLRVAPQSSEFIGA
Protocol: (§1) In order to confirm that the compound represented by formula 1 provided in one aspect of the present invention acts as an allosteric inhibitor against WT and mutant of EGFR, the cell growth inhibitory effect was evaluated in BaF3 cells overexpressing WT and mutant of EGFR.
(§2) More specifically, the cell growth inhibitory ability of the compound of the present invention to the Ba/F3 cell line overexpressing WT and mutant of EGFR was evaluated using CellTiter 96 AQueous Non-Radioactive Cell Proliferation Assay system of Promega, as follows. AQueous Non-Radioactive Cell Proliferation Assay is a method of confirming cell growth inhibitory ability by measuring the degree of color development by reducing MTS (3-(4,5-Dimethylthiazol-2-yl)-5-(3-carboxymethoxyphenyl)-2-(4-sulfophenyl)-2H-tetrazolium) to Formazan by a reductase secreted by mitochondria present in living cells in a cell culture state. The Ba/F3 EGFR WT and Ba/F3 EGFR del19/T790M/C797S (DTC), Ba/F3 EGFR L858R (L), Ba/F3 EGFR L858R/T790M (LT), and Ba/F3 EGFR L858R/T790M/C797S (LTC) mutation cell lines used in the present invention were purchased from the laboratory of Professor Byung-cheol Cho, Yonsei University. All cell lines were cultured in RPMI supplemented with 10% FBS, 1% penicillin-streptomycin and 1 μg/ml of puromycine in a 5% CO2 incubator at 37° C.
(§3) The cell survival inhibitory effect of the compound according to each EGFR mutation was analyzed by the following analysis method.
(§4) BaF3 cells were distributed in a 96-well cell culture plate at the density of 2000˜10000 cells/100 μL/well, and cultured for 24 hours. Thereafter, the concentration of the compound represented by formula 1 provided in one aspect of the present invention was prepared to double the final concentrations of 0.1 nM, 1 nM, 10 nM, 100 nM, 1000 nM and 10000 nM, and the compound was treated to the plate (100 μL/well). The plate was reacted in an incubator at 37° C. for 72 hours. Then, MTS was treated to the plate (20 μL/well) and the plate was incubated at 37° C. for 2 to 4 hours. Finally, after measuring the absorbance at 490 nm using a microplate reader, the relative value compared to 0 nM (% Control) was obtained to confirm the cell growth inhibitory ability of the compound. The measured values were analyzed using Prism program (version 8.0, Graphpad Software, Inc.), and the IC50 value (Inhibition concentration 50), an indicator of the cell growth inhibitory ability of the compound, was calculated.

[2] = biological target: Ba/F3 EGFR L858R/T790M/C797S (LTC) (Homo sapiens, UniProt P00533, T790M/C797S/L858R, cells depend on it); test: Cell growth inhibitory ability in Ba/F3 cells overexpressing EGFR L858R/T790M/C797S (MTS, CellTiter 96 AQueous); type: cell-based; conditions: 72 hours, MTS absorbance at 490 nm, read-out: Ba/F3 EGFR triple mutant L858R/T790M/C797S, IC50
Ba/F3 EGFR L858R/T790M/C797S (LTC), sequence (P00533 whole entry T790M/C797S/L858R): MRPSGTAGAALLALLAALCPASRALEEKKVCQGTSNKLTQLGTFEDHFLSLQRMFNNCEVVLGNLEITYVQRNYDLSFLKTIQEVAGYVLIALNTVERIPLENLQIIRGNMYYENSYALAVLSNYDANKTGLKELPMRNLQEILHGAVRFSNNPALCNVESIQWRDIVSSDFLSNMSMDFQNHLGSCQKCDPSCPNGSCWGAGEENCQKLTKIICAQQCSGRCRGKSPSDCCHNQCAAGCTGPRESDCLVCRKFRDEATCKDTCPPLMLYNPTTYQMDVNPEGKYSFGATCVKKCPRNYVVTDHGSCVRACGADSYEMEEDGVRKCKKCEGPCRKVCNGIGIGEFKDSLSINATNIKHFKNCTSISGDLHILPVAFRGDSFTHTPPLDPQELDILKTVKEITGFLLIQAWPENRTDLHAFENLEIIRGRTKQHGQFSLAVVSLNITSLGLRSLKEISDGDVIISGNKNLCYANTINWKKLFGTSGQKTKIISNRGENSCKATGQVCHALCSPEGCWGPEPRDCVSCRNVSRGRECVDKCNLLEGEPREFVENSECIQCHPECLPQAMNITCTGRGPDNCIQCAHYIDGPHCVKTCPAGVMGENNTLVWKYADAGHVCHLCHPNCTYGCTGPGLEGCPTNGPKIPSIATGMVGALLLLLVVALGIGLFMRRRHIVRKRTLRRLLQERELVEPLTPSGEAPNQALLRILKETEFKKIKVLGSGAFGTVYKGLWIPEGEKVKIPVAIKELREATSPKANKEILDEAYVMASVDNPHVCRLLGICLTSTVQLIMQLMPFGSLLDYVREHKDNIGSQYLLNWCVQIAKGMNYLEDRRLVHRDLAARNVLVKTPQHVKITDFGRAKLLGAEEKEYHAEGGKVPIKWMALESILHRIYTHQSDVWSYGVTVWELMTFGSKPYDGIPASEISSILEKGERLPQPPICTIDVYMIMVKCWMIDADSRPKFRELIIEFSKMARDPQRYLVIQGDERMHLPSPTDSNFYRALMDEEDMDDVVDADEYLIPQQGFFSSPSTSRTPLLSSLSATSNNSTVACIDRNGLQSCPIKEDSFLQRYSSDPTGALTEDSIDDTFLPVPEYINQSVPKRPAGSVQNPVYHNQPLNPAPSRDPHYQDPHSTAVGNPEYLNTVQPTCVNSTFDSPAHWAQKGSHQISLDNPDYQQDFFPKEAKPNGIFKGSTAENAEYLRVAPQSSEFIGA
Protocol: as §1, §2, §3, §4

| Compound | GI50 [1] [nM] | GI50 [2] [nM] |
| --- | --- | --- |
| Cc1cc(C(=O)N[C@@H](c2cc3ccccc3[nH]2)c2cc(F)ccc2O)cc(-c2ccc(N3CCC(N)CC3)cc2)c1 [Example 1, (R)-4′-(4-aminopiperidine-1-yl)-N-((5-fluoro-2-hydroxyphenyl)(1H-indole-2-yl)methyl)-5-methyl-[1,1′-biphenyl]-3-carboxamide] | < 30 | < 30 |
| CC(C)c1cc(C(=O)N[C@@H](c2cc3ccccc3[nH]2)c2cc(F)ccc2O)cc(-c2ccc(N3CCC(N)CC3)cc2)c1 [Example 2, (R)-4′-(4-aminopiperidine-1-yl)-N-((5-fluoro-2-hydroxyphenyl)(1H-indole-2-yl)methyl)-5-isopropyl-[1,1′-biphenyl]-3-carboxamide] | > 200 | > 200 |
| COc1cc(C(=O)N[C@@H](c2cc3ccccc3[nH]2)c2cc(F)ccc2O)cc(-c2ccc(N3CCC(N)CC3)cc2)c1 [Example 3, (R)-4′-(4-aminopiperidine-1-yl)-N-((5-fluoro-2-hydroxyphenyl)(1H-indole-2-yl)methyl)-5-methoxy-[1,1′-biphenyl]-3-carboxamide] | > 200 | > 200 |
| CC(C)(C)c1cc(C(=O)N[C@@H](c2cc3ccccc3[nH]2)c2cc(F)ccc2O)cc(-c2ccc(N3CCC(N)CC3)cc2)c1 [Example 4, (R)-4′-(4-aminopiperidine-1-yl)-5-(tert-butyl)-N-((5-fluoro-2-hydroxyphenyl)(1H-indole-2-yl)methyl)-[1,1′-biphenyl]-3-carboxamide] | > 200 | > 200 |
| NC1CCN(c2ccc(-c3cc(F)cc(C(=O)N[C@@H](c4cc5ccccc5[nH]4)c4cc(F)ccc4O)c3)cc2)CC1 [Example 5, (R)-4′-(4-aminopiperidine-1-yl)-5-fluoro-N-((5-fluoro-2-hydroxyphenyl)(1H-indole-2-yl)methyl)-[1,1′-biphenyl]-3-carboxamide] | < 30 | > 200 |
| NC1CCN(c2ccc(-c3cc(C(=O)N[C@@H](c4cc5ccccc5[nH]4)c4cc(F)ccc4O)cc(C(F)(F)F)c3)cc2)CC1 [Example 6, 4′-(4-aminopiperidine-1-yl)-N-((5-fluoro-2-hydroxyphenyl)(1H-indole-2-yl)methyl)-5-(trifluoromethyl)-[1,1′-biphenyl]-3-carboxamide] | > 200 | > 200 |
| NC1CCN(c2ccc(-c3cc(C(=O)N[C@@H](c4cc5ccccc5[nH]4)c4cc(F)ccc4O)cc([N+](=O)[O-])c3)cc2)CC1 [Example 7, 4′-(4-aminopiperidine-1-yl)-N-((5-fluoro-2-hydroxyphenyl)(1H-indole-2-yl)methyl)-5-nitro-[1,1′-biphenyl]-3-carboxamide] | > 200 | > 200 |
| CSc1cc(C(=O)N[C@@H](c2cc3ccccc3[nH]2)c2cc(F)ccc2O)cc(-c2ccc(N3CCC(N)CC3)cc2)c1 [Example 8, 4′-(4-aminopiperidine-1-yl)-N-((5-fluoro-2-hydroxyphenyl)(1H-indole-2-yl)methyl)-5-(methylthio)-[1,1′-biphenyl]-3-carboxamide] | > 200 | > 200 |
| N#Cc1cc(C(=O)N[C@@H](c2cc3ccccc3[nH]2)c2cc(F)ccc2O)cc(-c2ccc(N3CCC(N)CC3)cc2)c1 [Example 9, 4′-(4-aminopiperidine-1-yl)-5-cyano-N-((5-fluoro-2-hydroxyphenyl)(1H-indole-2-yl)methyl)-[1,1′-biphenyl]-3-carboxamide] | > 200 | > 200 |
| NC1CCN(c2ccc(-c3cc(Cl)cc(C(=O)N[C@@H](c4cc5ccccc5[nH]4)c4cc(F)ccc4O)c3)cc2)CC1 [Example 10, (R)-4′-(4-aminopiperidine-1-yl)-5-chloro-N-((5-fluoro-2-hydroxyphenyl)(1H-indole-2-yl)methyl)-[1,1′-biphenyl]-3-carboxamide] | < 30 | 30 to 200 |
| Cc1cc(C(=O)N[C@@H](c2cc3ccccc3[nH]2)c2cc(F)ccc2O)cc(-c2ncc(N3C4CCC3CN(C)C4)cn2)c1 [Example 46, N—((R)-(5-fluoro-2-hydroxyphenyl)(1H-indole-2-yl)methyl)-3-methyl-5-(5-(3-methyl-3,8-diazabicyclo[3.2.1]octane-8-yl)pyrimidine-2-yl)benzamide] | – | < 30 |
| Cc1cc(C(=O)N[C@@H](c2cc3ccccc3[nH]2)c2cc(F)ccc2O)cc(-c2ncc(N3CCC(n4cccc4)CC3)cn2)c1 [Example 47, (R)-3-(5-(4-(1H-pyrrole-1-yl)piperidine-1-yl)pyrimidine-2-yl)-N-((5-fluoro-2-hydroxyphenyl)(1H-indole-2-yl)methyl)-5-methylbenzamide] | – | > 200 |
| Cc1cc(C(=O)N[C@@H](c2cc3ccccc3[nH]2)c2cc(F)ccc2O)cc(-c2ncc(N3CCC(n4cncn4)CC3)cn2)c1 [Example 48, (R)-3-(5-(4-(1H-1,2,4-triazole-1-yl)piperidine-1-yl)pyrimidine-2-yl)-N-((5-fluoro-2-hydroxyphenyl)(1H-indole-2-yl)methyl)-5-methylbenzamide] | – | 30 to 200 |
| Cc1cc(C(=O)N[C@@H](c2cc3ccccc3[nH]2)c2cc(F)ccc2O)cc(-c2ncc(N3CCC(O)CC3)cn2)c1 [Example 49, (R)—N-((5-fluoro-2-hydroxyphenyl)(1H-indole-2-yl)methyl)-3-(5-(4-hydroxypiperidine-1-yl)pyrimidine-2-yl)-5-methylbenzamide] | – | < 30 |
| Cc1cc(C(=O)N[C@@H](c2cc3ccccc3[nH]2)c2cc(F)ccc2O)cc(-c2ncc(N3CCC(N4CCCCC4)CC3)cn2)c1 [Example 50, (R)-3-(5-([1,4′-bipiperidine]-1′-yl)pyrimidine-2-yl)-N-((5-fluoro-2-hydroxyphenyl)(1H-indole-2-yl)methyl)-5-methylbenzamide] | – | < 30 |
| Cc1cc(C(=O)N[C@@H](c2cc3ccccc3[nH]2)c2cc(F)ccc2O)cc(-c2ncc(N3CCC(CN4CCOCC4)CC3)cn2)c1 [Example 51, (R)—N-((5-fluoro-2-hydroxyphenyl)(1H-indole-2-yl)methyl)-3-methyl-5-(5-(4-(morpholinomethyl)piperidine-1-yl)pyrimidine-2-yl)benzamide] | – | > 200 |
| Cc1cc(C(=O)N[C@@H](c2cc3ccccc3[nH]2)c2cc(F)ccc2O)cc(-c2ncc(N3CCC(CN4CCCC4)CC3)cn2)c1 [Example 52, (R)—N-((5-fluoro-2-hydroxyphenyl)(1H-indole-2-yl)methyl)-3-methyl-5-(5-(4-(pyrrolidine-1-ylmethyl)piperidine-1-yl)pyrimidine-2-yl)benzamide] | – | > 200 |
| Cc1cc(C(=O)N[C@@H](c2cc3ccccc3[nH]2)c2cc(F)ccc2O)cc(-c2ncc(N3CC[C@@H](N(C)C)C3)cn2)c1 [Example 53, 3-[5-[(3R)-3-(dimethylamino)pyrrolidine-1-yl]pyrimidine-2-yl]-N—[(R)-(5-fluoro-2-hydroxy-phenyl)-(1H-indole-2-yl)methyl]-5-methyl-benzamide] | – | < 30 |
| CNC1CCN(c2cnc(-c3cc(C)cc(C(=O)N[C@@H](c4cc5ccccc5[nH]4)c4cc(F)ccc4O)c3)nc2)CC1 [Example 54, (R)—N-((5-fluoro-2-hydroxyphenyl)(1H-indole-2-yl)methyl)-3-methyl-5-(5-(4-(methylamino)piperidine-1-yl)pyrimidine-2-yl)benzamide] | – | < 30 |
| Cc1cc(C(=O)N[C@@H](c2cc3ccccc3[nH]2)c2cc(F)ccc2O)cc(-c2ncc(N3CCC(C(=O)Nc4ccccc4)CC3)cn2)c1 [Example 55, (R)-1-(2-(3-(((5-fluoro-2-hydroxyphenyl)(1H-indole-2-yl)methyl)carbamoyl)-5-methylphenyl)pyrimidine-5-yl)-N-phenylpiperidine-4-carboxamide] | – | > 200 |
| COCCOc1ccc(N2CCN(c3cnc(-c4cc(C)cc(C(=O)N[C@@H](c5cc6ccccc6[nH]5)c5cc(F)ccc5O)c4)nc3)CC2)cc1 [Example 56, (R)—N-((5-fluoro-2-hydroxyphenyl)(1H-indole-2-yl)methyl)-3-(5-(4-(4-(2-methoxyethoxy)phenyl)piperazine-1-yl)pyrimidine-2-yl)-5-methylbenzamide] | – | > 200 |
